Laboratory results published in PubChem BioAssay (NCI).
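Interpolation was linear, between the two tested concentrations surrounding the appropriate level; five concentrations were tested over 48 hours in 96-well plates. Abbreviation: GI50, concentration required for 50% inhibition of growth. The concentration for full growth arrest is given as TGI.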

Assays:
Test in all cases: DTP human tumour cell line panel, 48 h
[1] = system: UO-31 renal
[2] = system: NCI-H226 lung
[3] = system: A549 NSCLC
[4] = system: MCF7 breast
[5] = system: COLO 205 colon
[6] = system: HS 578T breast
[7] = system: OVCAR-8 ovarian
[8] = system: M14 melanoma
[9] = system: SK-MEL-5 melanoma
[10] = system: SF-268 CNS
[11] = system: SK-MEL-2 melanoma
[12] = system: HT29 colon
[13] = system: SF-295 CNS
[14] = system: SN12C renal
[15] = system: DU-145 prostate
[16] = system: 786-0 renal
[17] = system: ACHN renal
[18] = system: OVCAR-3 ovarian
[19] = system: NCI-H460 lung
[20] = system: MALME-3M melanoma
[21] = system: HOP-62 NSCLC
[22] = system: MOLT-4 leukemia
[23] = system: HL-60(TB) leukemia
[24] = system: LOX IMVI melanoma
[25] = system: TK-10 renal
[26] = system: T-47D breast
[27] = system: SK-MEL-28 melanoma
[28] = system: HCT-15 colon
[29] = system: PC-3 prostate
[30] = system: A498 renal
[31] = system: HOP-92 NSCLC
[32] = system: SNB-75 CNS
[33] = system: NCI-H522 lung
[34] = system: HCT-116 colon
[35] = system: K-562 leukemia
[36] = system: OVCAR-4 ovarian
[37] = system: IGROV1 ovarian
[38] = system: NCI/ADR-RES ovarian
[39] = system: CCRF-CEM leukemia
[40] = system: RPMI-8226 leukemia
[41] = system: U251 CNS
[42] = system: OVCAR-5 ovarian
[43] = system: SW-620 colon
[44] = system: UACC-62 melanoma
[45] = system: SK-OV-3 ovarian
[46] = system: SR leukemia
[47] = system: KM12 colon
[48] = system: UACC-257 melanoma
[49] = system: HCC-2998 colon
[50] = system: NCI-H23 lung
[51] = system: MDA-MB-231 breast
[52] = system: SNB-19 CNS
[53] = system: CAKI-1 renal
[54] = system: BT-549 breast
[55] = system: MDA-MB-435
[56] = system: RXF 393 renal
[57] = system: SF-539 CNS
[58] = system: EKVX NSCLC

In the case of Cc1ccc(NC(=O)c2sc3nc4c(cc3c2N)C(=O)CCC4)cc1C, the GI50 [1] is reported as 1810 nM, the TGI [1] is reported as greater than 100000 nM and the GI50 [2] is reported as 27300 nM. For the same compound, the TGI [2] was greater than 100000 nM, the GI50 [3] was 704 nM and the TGI [3] was greater than 100000 nM. It also gave a GI50 [4] of 352 nM, a TGI [4] greater than 100000 nM and a GI50 [5] of 309 nM. The TGI [5] was 936 nM, the GI50 [6] was 442 nM and the TGI [6] was greater than 100000 nM. The GI50 [7] was 3450 nM, the TGI [7] was greater than 100000 nM and the GI50 [8] was 602 nM. The TGI [8] was greater than 100000 nM, the GI50 [9] was 418 nM and the TGI [9] was 21600 nM. The GI50 [10] was 4470 nM, the TGI [10] was greater than 100000 nM and the GI50 [11] was 464 nM. The TGI [11] was greater than 100000 nM, the GI50 [12] was 399 nM and the TGI [12] was 11200 nM. It also gave a GI50 [13] of 358 nM, a TGI [13] greater than 100000 nM and a GI50 [14] of 797 nM. The TGI [14] was greater than 100000 nM, the GI50 [15] was 673 nM and the TGI [15] was greater than 100000 nM. For the same compound, the GI50 [16] was 699 nM, the TGI [16] was greater than 100000 nM and the GI50 [17] was 1420 nM. The TGI [17] was greater than 100000 nM, the GI50 [18] was 345 nM and the TGI [18] was 1600 nM. The GI50 [19] was 399 nM, the TGI [19] was greater than 43500 nM and the TGI [20] was greater than 100000 nM. For the same compound, the GI50 [21] was 733 nM, the TGI [21] was greater than 100000 nM and the GI50 [22] was 6410 nM. For the same compound, the TGI [22] was 76200 nM, the GI50 [23] was 360 nM and the TGI [23] was 1720 nM. The GI50 [24] was 837 nM, the TGI [24] was greater than 100000 nM and the GI50 [25] was greater than 70000 nM. For the same compound, the TGI [25] was greater than 100000 nM, the GI50 [26] was 533 nM and the TGI [26] was greater than 73200 nM. The GI50 [27] was 1860 nM, the TGI [27] was greater than 100000 nM and the GI50 [28] was 556 nM. For the same compound, the TGI [28] was greater than 100000 nM, the GI50 [29] was 607 nM and the TGI [29] was greater than 100000 nM. It also gave a GI50 [30] of 198 nM, a TGI [30] of 658 nM and a TGI [31] greater than 100000 nM. For the same compound, the GI50 [32] was 313 nM, the TGI [32] was greater than 100000 nM and the GI50 [33] was 276 nM. The TGI [33] was 4880 nM, the GI50 [34] was 546 nM and the TGI [34] was greater than 100000 nM. It also gave a GI50 [35] of 468 nM, a TGI [35] of 35000 nM and a GI50 [36] of 1130 nM. The TGI [36] was greater than 100000 nM, the GI50 [37] was 2200 nM and the TGI [37] was greater than 100000 nM. For the same compound, the GI50 [38] was 784 nM, the TGI [38] was greater than 100000 nM and the GI50 [39] was 377 nM. For the same compound, the TGI [39] was 97000 nM, the GI50 [40] was 1570 nM and the TGI [40] was greater than 30400 nM. It also gave a GI50 [41] of 765 nM, a TGI [41] greater than 56700 nM and a GI50 [42] of 3160 nM. It also gave a TGI [42] greater than 100000 nM, a GI50 [43] of 417 nM and a TGI [43] greater than 100000 nM. For the same compound, the GI50 [44] was 496 nM, the TGI [44] was greater than 100000 nM and the GI50 [45] was 533 nM. For the same compound, the TGI [45] was greater than 100000 nM, the GI50 [46] was 499 nM and the TGI [46] was 26800 nM. The GI50 [47] was 486 nM, the TGI [47] was greater than 100000 nM and the GI50 [48] was 21600 nM. For the same compound, the TGI [48] was greater than 100000 nM, the GI50 [49] was 1960 nM and the TGI [49] was greater than 100000 nM. It also gave a GI50 [50] of 1410 nM, a TGI [50] greater than 100000 nM and a GI50 [51] of 1650 nM. It also gave a TGI [51] greater than 100000 nM, a GI50 [52] of 652 nM and a TGI [52] greater than 100000 nM. It also gave a GI50 [53] of 661 nM and a TGI [53] greater than 100000 nM.
Work on COc1cc(/C=C/C(=O)N2CCN(C(=O)c3cc(OC)c(OC)c(OC)c3)CC2)ccc1OCCCOc1cc2c(cc1OC)C(=O)N1CCC[C@H]1C=N2 yielded a GI50 [1] of 1980 nM, a TGI [1] of 6560 nM and a GI50 [2] of 286 nM. For the same compound, the TGI [2] was 1190 nM, the GI50 [3] was 953 nM and the TGI [3] was 9260 nM. It also gave a GI50 [4] of 109 nM, a TGI [4] of 636 nM and a GI50 [5] of 190 nM. For the same compound, the TGI [5] was 476 nM, the GI50 [6] was 310 nM and the TGI [6] was 841 nM. For the same compound, the GI50 [7] was 345 nM, the GI50 [8] was 346 nM and the TGI [8] was 1420 nM. The GI50 [9] was 193 nM, the TGI [9] was 415 nM and the GI50 [10] was 284 nM. For the same compound, the TGI [10] was 4030 nM, the GI50 [11] was 260 nM and the TGI [11] was 703 nM. For the same compound, the GI50 [12] was 340 nM, the TGI [12] was 12800 nM and the TGI [13] was 875 nM. For the same compound, the GI50 [14] was 303 nM, the TGI [14] was 21800 nM and the GI50 [15] was 351 nM. The TGI [15] was 11500 nM, the GI50 [16] was 491 nM and the TGI [16] was 10600 nM. For the same compound, the GI50 [17] was 2640 nM, the TGI [17] was greater than 35300 nM and the GI50 [18] was 219 nM. It also gave a TGI [18] of 504 nM, a GI50 [19] of 333 nM and a TGI [19] of 10300 nM. It also gave a GI50 [20] of 175 nM, a TGI [20] of 319 nM and a GI50 [21] of 326 nM. It also gave a TGI [21] of 933 nM, a GI50 [22] of 218 nM and a TGI [22] of 1590 nM. For the same compound, the GI50 [23] was 214 nM, the GI50 [24] was 215 nM and the TGI [24] was 726 nM. The GI50 [25] was 450 nM, the TGI [25] was 4370 nM and the GI50 [54] was 154 nM. The TGI [54] was 434 nM, the GI50 [26] was 150 nM and the TGI [26] was 495 nM. For the same compound, the GI50 [55] was 178 nM, the TGI [55] was 343 nM and the GI50 [27] was 212 nM. The TGI [27] was 417 nM, the GI50 [28] was 3180 nM and the TGI [28] was 27700 nM. For the same compound, the GI50 [29] was 506 nM, the TGI [29] was greater than 34300 nM and the GI50 [30] was 205 nM. The TGI [30] was 510 nM, the GI50 [31] was 297 nM and the TGI [31] was 7460 nM. The GI50 [32] was 241 nM, the TGI [32] was 642 nM and the GI50 [33] was 213 nM. The TGI [33] was 3250 nM, the GI50 [35] was 324 nM and the TGI [35] was greater than 100000 nM. The GI50 [36] was 1530 nM, the TGI [36] was 27500 nM and the GI50 [38] was 11400 nM. The TGI [38] was greater than 95000 nM, the GI50 [39] was 83.2 nM and the TGI [39] was greater than 100000 nM. For the same compound, the GI50 [40] was 431 nM, the TGI [40] was greater than 100000 nM and the GI50 [56] was 334 nM. The TGI [56] was 3680 nM, the GI50 [41] was 227 nM and the TGI [41] was 6060 nM. For the same compound, the GI50 [43] was 198 nM, the TGI [43] was 446 nM and the GI50 [44] was 162 nM. The TGI [44] was 338 nM, the GI50 [45] was 551 nM and the TGI [45] was greater than 71300 nM. For the same compound, the GI50 [47] was 250 nM, the TGI [47] was 699 nM and the GI50 [48] was 313 nM. For the same compound, the TGI [48] was 2040 nM, the GI50 [49] was 296 nM and the TGI [49] was 838 nM. For the same compound, the GI50 [50] was 296 nM, the TGI [50] was 974 nM and the GI50 [52] was 362 nM. The TGI [52] was greater than 40300 nM, the GI50 [57] was 248 nM and the TGI [57] was 578 nM. For the same compound, the GI50 [53] was 1540 nM, the TGI [53] was 6080 nM and the GI50 [58] was 794 nM. It also gave a TGI [58] of 4560 nM.
